Measurements reported in patent US5556996A, “Oxiranyls disubstituted with a phenyl group and a substituted chromanyl or tetrahydroquinolinyl group having retinoid like activity” (Allergan, priority 1994, dated 1996).

Test system: ornithine decarboxylase (ODC)
Test: Inhibition of TPA induction of ornithine decarboxylase (ODC assay)
Type: biochemical
Details: TPA-induced ODC activity
Excerpt: The retinoic acid-like activity of these compounds is confirmed through the classic measure of retinoic acid activity involving the effects of retinoic acid on ornithine decarboxylase. The original work on the correlation between retinoic acid and decrease in cell proliferation was done by Verma & Boutwell, Cancer Research, 1977, 37,2196-2201. That reference discloses that ornithine decarboxylase (ODC) activity increased precedent to polyamine biosynthesis. It has been established elsewhere that increases in polyamine synthesis can be correlated or associated with cellular proliferation. Thus, if ODC activity could be inhibited, cell hyperproliferation could be modulated. Although all cases for ODC activity increases are unknown, it is known that 12-0-tetradecanoylphorbol-13-acetate (TPA) induces ODC activity. Retinoic acid inhibits this induction of ODC activity by TPA. […] Activity of exemplary compounds of the present invention in the above-described ODC assay is disclosed in Table 1 which provides IC80 data for the exemplary compounds. ("IC80 " is that concentration of the test compound which causes 80% inhibition in the ODC assay).

IC80 conc (concentration of the test compound which causes 80% inhibition in the ODC assay) [nmols] | SMILES
> 300 | CCOC(=O)c1ccc([C@@H]2O[C@@]2(C)c2ccc3c(c2)C(C)(C)CC(C)(C)O3)cc1 (relative stereo) [Compound 1, Ethyl(±)-(E)-4-[2-methyl-2-(2,2,4,4-tetramethylchroman-6-yl)oxiran-1-yl]benzoate]
73 | CC1(C)CC(C)(C)c2cc([C@]3(C)O[C@H]3c3ccc(C(=O)O)cc3)ccc2O1 (relative stereo) [Compound 2, (±)-(E)T4-[2-methyl-2-(2,2,4,4-tetramethylchroman-6-yl)oxiran-1-yl]benzoic acid]
